{
  "source": "patent US7501410B2",
  "about": "“Methods of inhibiting BTK and SYK protein kinases” (Roche Palo Alto LLC, priority 2006, dated 2009)",
  "key": {"[1]": {"molecular_target": "T1, Bruton's Tyrosine Kinase (Btk) (Homo sapiens, UniProt Q06187)", "T1 construct": "5-10 nM Btk enzyme (His-tagged, full-length); His tag", "T1 sequence (Q06187 whole entry)": "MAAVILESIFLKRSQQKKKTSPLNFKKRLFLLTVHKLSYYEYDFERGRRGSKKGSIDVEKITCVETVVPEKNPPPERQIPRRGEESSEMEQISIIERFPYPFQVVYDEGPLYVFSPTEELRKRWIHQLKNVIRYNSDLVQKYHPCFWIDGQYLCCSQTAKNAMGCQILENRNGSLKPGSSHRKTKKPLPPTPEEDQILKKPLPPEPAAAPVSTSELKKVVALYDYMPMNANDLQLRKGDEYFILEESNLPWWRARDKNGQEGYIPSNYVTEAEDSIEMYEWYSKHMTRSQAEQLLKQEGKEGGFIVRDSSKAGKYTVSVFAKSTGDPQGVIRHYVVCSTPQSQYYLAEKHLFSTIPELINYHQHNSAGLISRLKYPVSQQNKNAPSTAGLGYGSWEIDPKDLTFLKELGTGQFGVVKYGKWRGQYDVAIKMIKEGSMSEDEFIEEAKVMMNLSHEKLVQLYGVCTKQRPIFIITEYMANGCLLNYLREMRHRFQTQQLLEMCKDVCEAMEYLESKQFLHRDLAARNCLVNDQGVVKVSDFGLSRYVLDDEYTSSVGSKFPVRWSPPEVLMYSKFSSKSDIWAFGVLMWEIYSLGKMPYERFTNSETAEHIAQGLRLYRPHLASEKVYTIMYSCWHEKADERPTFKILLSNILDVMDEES", "assay": "Determination of IC50 of Bruton's Tyrosine Kinase (Btk) inhibition, 33P filtration assay", "assay_type": "biochemical", "details": "His-tagged full-length Btk, 100 μM ATP", "from_the_text": "Determination of IC50 of Bruton's Tyrosine Kinase (Btk) Inhibition\nThe assay is a capture of radioactive ^33P phosphorylated product through filtration. The interactions of Btk, biotinylated SH2 peptide substrate (Src homology), and ATP lead to phosphorylation of the peptide substrate. Biotinylated product is bound streptavidin sepharose beads. All bound, radiolabeled products are detected by scintillation counter.\nPlates assayed are 96-well polypropylene (Greiner) and 96-well 1.2 μm hydrophilic PVDF filter plates (Millipore). Concentrations reported here are final assay concentrations: 10-100 μM compounds in DMSO (Burdick and Jackson), 5-10 nM Btk enzyme (His-tagged, full-length), 30 μM peptide substrate (Biotin-Aca-[…]-NH2), 100 μM ATP (Sigma), 8 mM imidazole (Sigma, pH 7.2), 8 mM glycerol-2-phosphate (Sigma), 200 μM EGTA (Roche Diagnostics), 1 mM MnCl2 (Sigma), 20 mM MgCl2 (Sigma), 0.1 mg/ml BSA (Sigma), 2 mM DTT (Sigma), 1 μCi ^33P ATP (Amersham), 20% streptavidin sepharose beads (Amersham), 50 mM EDTA (Gibco), 2 M NaCl (Gibco), 2 M NaCl w/1% phosphoric acid (Gibco), microscint-20 (Perkin Elmer).\nIC50 determinations are calculated from 10 data points per compound utilizing data produced from a standard 96-well plate assay template. One control compound and seven unknown inhibitors were tested on each plate and each plate was run twice. Typically, compounds were diluted in half-log starting at 100 μM and ending at 3 nM. The control compound was staurosporine. Background was counted in the absence of peptide substrate. Total activity was determined in the presence of peptide substrate. The following protocol was used to determine BTK inhibition.\n1) Sample preparation: The test compounds were diluted at half-log increments in assay buffer (imidazole, glycerol-2-phosphate, EGTA, MnCl2, MgCl2, BSA).\n2) Bead preparation • a.) rinse beads by centrifuging at 500 g • b.) reconstitute the beads with PBS and EDTA to produce a 20% bead slurry\n3) Pre-incubate reaction mix without substrate (assay buffer, DTT, ATP, ^33P ATP) and mix with substrate (assay buffer, DTT, ATP, ^33P ATP, peptide substrate) 30° C. for 15 min.\n4) To start assay, pre-incubate 10 μL BTK in enzyme buffer (imidazole, glycerol-2-phosphate, BSA) and 10 μL of test compounds for 10 min at RT.\n5) Add 30 μL reaction mixture without or with substrate to BTK and compounds.\n6) Incubate 50 μL total assay mix for 30 min at 30° C.\n7) Transfer 40 μL of assay to 150 μL bead slurry in filter plate to stop reaction.\n8) Wash filter plate after 30 min, with following steps • a. 3 ×250 μL NaCl • b. 3×250 μL NaCl containing 1% phosphoric acid • c. 1×250 μL H2O\n9) Dry plate for 1 h at 65° C. or overnight at RT\n10) Add 50 μL microscint-20 and count ^33P cpm on scintillation counter.\nCalculate percent activity from raw data in cpm percent activity=(sample−bkg)/(total activity−bkg)×100"}, "Ramos cells": {"test_system": "Ramos cells", "assay": "Inhibition of B-cell activation, B cell FLIPR assay in Ramos cells", "assay_type": "cell-based", "details": "Homo sapiens, anti-IgM stimulated intracellular calcium increase", "from_the_text": "Inhibition of B-cell Activation—B Cell FLIPR Assay in Ramos Cells\nThe B cell FLIPR assay is a cell based functional method of determining the effect of potential inhibitors of the intracellular calcium increase from stimulation by an anti-IgM antibody. Ramos cells (human Burkitt's lymphoma cell line. ATCC-No. CRL-1596) were cultivated in Growth Media (described below). One day prior to assay, Ramos cells were resuspended in fresh growth media (same as above) and set at a concentration of 0.5×10^6/mL in tissue culture flasks. On day of assay, cells were counted and set at a concentration of 1×10^6/mL in growth media supplemented with 1 μM FLUO-3 AM(TefLabs Cat-No. 0116, prepared in anhydrous DMSO and 10% Pluronic acid) in a tissue culture flask, and incubated at 37° C. (4% CO2) for 1 h. To remove extracellular dye, cells were collected by centrifugation (5 min, 1000 rpm), resuspended in FLIPR buffer (described below) at 1×10^6 cells/mL and then dispensed into 96-well poly-D-lysine coated black/clear plates (BD Cat-No. 356692) at 1×10^5 cells per well. Test compounds at seven concentrations ranging from 100 μM to 0.03 μM were added, and allowed to incubate with cells for 30 min at RT. Ramos cell Ca^2+ signaling was stimulated by the addition of 10 μg/mL anti-IgM (Southern Biotech, Cat-No. 2020-01) and measured on a FLIPR (Molecular Devices, captures images of 96 well plates using a CCD camera with an argon laser at 480 nm excitation).\nGrowth Medium: RPMI 1640 medium with L-glutamine (Invitrogen, Cat-No. 61870-010), 10% Fetal Bovine Serum (FBS, Summit Biotechnology Cat-No. FP-100-05); 1 mM Sodium Pyruvate (Invitrogen Cat. No. 11360-070).\nFLIPR buffer: HBSS (Invitrogen, Cat-No. 141175-079),2 mM CaCl2 (Sigma Cat-No. C-4901), HEPES (Invitrogen, Cat-No. 15630-080), 2.5 mM Probenecid (Sigma, Cat-No. P-8761), 0.1% BSA (Sigma, Cat-No. A-7906), 11 mM Glucose (Sigma, Cat-No. G-7528).\nIn order to achieve the highest final assay concentration of 100 μM, 24 μL of 10 mM compound stock solution (made in DMSO) is added directly to 576 μL of FLIPR buffer. The test compounds are diluted in FLIPR Buffer (using Biomek 2000 robotic pipettor) resulting in the following dilution scheme: vehicle, 1.00×10^−4 M, 1.00×10^−5, 3.16×10^−6, 1.00×10^−6, 3.16×10^−7, 1.00×10^−7, 3.16×10^−8.\nIntracellular increases in calcium were reported using a max-min statistic (subtracting the resting baseline from the peak caused by addition of the stimulatory antibody using a Molecular Devices FLIPR control and statistic exporting software. The IC50 was determined using a non-linear curve fit (GraphPad Prism software). Representative results are in Table 1."}},
  "data": [
    {"compound": "Cc1cc(Nc2nn(C(C)C)c(=O)c3cc(N(C)C)ccc23)n[nH]1", "note": "[Example F-6, 2-Isopropyl-4-(5-methyl-1H-pyrazol-3-ylamino)-7-dimethylamino-2H-phthalazin-1-one]", "values": [
      {"measurement": "IC50", "setting": "[1]", "result": 0.468, "unit": "µM"},
      {"measurement": "IC50", "setting": "Ramos cells", "result": 1.13, "unit": "µM"}
    ]}
  ]
}
